Earlier results in article PMC8687831, “α-Amylase Inhibitory Activity of Catunaregam spinosa (Thunb.) Tirveng.: In Vitro and In Silico Studies” (BioMed Research International, 2021).

System: streptozotocin-induced diabetic rats
Design: method as in PMID 21143769

CC[C@H](CC[C@@H](C)[C@H]1CC[C@H]2[C@@H]3CC=C4C[C@@H](O)CC[C@]4(C)[C@H]3CC[C@]12C)C(C)C [β-Sitosterol, β-sitosterol]
effective to lower the blood glucose level: 78-100%
